How the values were obtained:
Test in all cases: Post-emergence test experiment (Table 3, 1000 g/ha)
Assay type in all cases: in vivo
Details in all cases: post-emergence spray, after 3 weeks, fresh weight inhibition
Abutilon theophrasti = system: Abutilon theophrasti
Excerpt: (§1) The activity level standard of harmful plants destruction (i. e. growth inhibition rate) is as follows: • Level 5: the growth inhibition rate is greater than 85%; • Level 4: the growth inhibition rate is equal to or greater than 60% and less than 85%; • Level 3: the growth inhibition rate is equal to or greater than 40% and less than 60%; • Level 2: the growth inhibition rate is equal to or greater than 20% and less than 40%; • Level 1: the growth inhibition rate is equal to or greater than 5% and less than 20%; • Level 0: the growth inhibition rate is less than 5%;
(§2) The above described growth inhibition rate is fresh weight inhibition rate.
(§3) Post-emergence test experiment: Monocotyledonous and dicotyledonous weed seeds and main crop seeds (i. e. wheat, corn, rice, soybean, cotton, oilseed, millet and sorghum.) were put into a plastic pot loaded with soil. Then covered with 0.5-2 cm soil, the seeds were allowed to grow in good greenhouse environment. The test plants were treated at 2-3 leaf stage 2 weeks after sowing. The test compounds of the invention were dissolved with acetone respectively, then added with tween-80, and using 1.5 liters per hectare of an emulsible concentrate of methyl oleate as a synergist, and diluted by certain amount of water to certain concentration. The solution was sprayed to the plants with a sprayer. Then the plants were cultured for 3 weeks in the greenhouse, and the experiment result of weed controlling effect after 3 weeks was listed in tables 3-4.

Monochoria vaginalis = system: Monochoria vaginalis
Excerpt: as §1, §2, §3

Galium spurium = system: Galium spurium
Excerpt: as §1, §2, §3

Compound | Activity level (growth inhibition rate) Abutilon theophrasti (Abutilon theophrasti) | Activity level (growth inhibition rate) Monochoria Vaginalis (Monochoria vaginalis) | Activity level (growth inhibition rate) Galium spurium (Galium spurium)
CCC(Oc1ncc(Cl)c(N)c1Cl)C(=O)SC (stereo not drawn) [Compound 23] | 5 (Level 5: the growth inhibition rate is greater than 85%) | 5 (Level 5: the growth inhibition rate is greater than 85%) | 5 (Level 5: the growth inhibition rate is greater than 85%)
CCC(Oc1nc(Cl)c(Cl)c(N)c1Cl)C(=O)SC (stereo not drawn) [Compound 24] | 5 (Level 5: the growth inhibition rate is greater than 85%) | 5 (Level 5: the growth inhibition rate is greater than 85%) | 5 (Level 5: the growth inhibition rate is greater than 85%)
CCC(Oc1nc(F)c(Cl)c(N)c1Cl)C(=O)SC (stereo not drawn) [Compound 25] | 5 (Level 5: the growth inhibition rate is greater than 85%) | 5 (Level 5: the growth inhibition rate is greater than 85%) | 5 (Level 5: the growth inhibition rate is greater than 85%)
CCCC(Oc1nc(F)c(Cl)c(N)c1Cl)C(=O)SC (stereo not drawn) [Compound 26] | 5 (Level 5: the growth inhibition rate is greater than 85%) | 5 (Level 5: the growth inhibition rate is greater than 85%) | 5 (Level 5: the growth inhibition rate is greater than 85%)
CSC(=O)C(Oc1nc(F)c(Cl)c(N)c1Cl)C(C)C (stereo not drawn) [Compound 27] | 5 (Level 5: the growth inhibition rate is greater than 85%) | 5 (Level 5: the growth inhibition rate is greater than 85%) | 5 (Level 5: the growth inhibition rate is greater than 85%)
CSC(=O)C(Oc1nc(F)c(Cl)c(N)c1Cl)C1CC1 (stereo not drawn) [Compound 28] | 5 (Level 5: the growth inhibition rate is greater than 85%) | 5 (Level 5: the growth inhibition rate is greater than 85%) | 5 (Level 5: the growth inhibition rate is greater than 85%)
COCC(Oc1nc(F)c(Cl)c(N)c1Cl)C(=O)SC (stereo not drawn) [Compound 29] | 5 (Level 5: the growth inhibition rate is greater than 85%) | 5 (Level 5: the growth inhibition rate is greater than 85%) | 5 (Level 5: the growth inhibition rate is greater than 85%)
COC(C)C(Oc1nc(F)c(Cl)c(N)c1Cl)C(=O)SC (stereo not drawn) [Compound 31] | 5 (Level 5: the growth inhibition rate is greater than 85%) | 5 (Level 5: the growth inhibition rate is greater than 85%) | 5 (Level 5: the growth inhibition rate is greater than 85%)
C=CC(Oc1nc(F)c(Cl)c(N)c1Cl)C(=O)SC (stereo not drawn) [Compound 32] | 5 (Level 5: the growth inhibition rate is greater than 85%) | 5 (Level 5: the growth inhibition rate is greater than 85%) | 5 (Level 5: the growth inhibition rate is greater than 85%)
C#CC(Oc1nc(F)c(Cl)c(N)c1Cl)C(=O)SC (stereo not drawn) [Compound 33] | 5 (Level 5: the growth inhibition rate is greater than 85%) | 5 (Level 5: the growth inhibition rate is greater than 85%) | 5 (Level 5: the growth inhibition rate is greater than 85%)
CSC(=O)C(F)Oc1nc(F)c(Cl)c(N)c1Cl (stereo not drawn) [Compound 34] | 5 (Level 5: the growth inhibition rate is greater than 85%) | 5 (Level 5: the growth inhibition rate is greater than 85%) | 5 (Level 5: the growth inhibition rate is greater than 85%)
CSC(=O)C(Cl)Oc1nc(F)c(Cl)c(N)c1Cl (stereo not drawn) [Compound 35] | 5 (Level 5: the growth inhibition rate is greater than 85%) | 5 (Level 5: the growth inhibition rate is greater than 85%) | 5 (Level 5: the growth inhibition rate is greater than 85%)
CSC(=O)C(Br)Oc1nc(F)c(Cl)c(N)c1Cl (stereo not drawn) [Compound 36] | 5 (Level 5: the growth inhibition rate is greater than 85%) | 5 (Level 5: the growth inhibition rate is greater than 85%) | 5 (Level 5: the growth inhibition rate is greater than 85%)
CSC(=O)C(CCl)Oc1nc(F)c(Cl)c(N)c1Cl (stereo not drawn) [Compound 37] | 5 (Level 5: the growth inhibition rate is greater than 85%) | 5 (Level 5: the growth inhibition rate is greater than 85%) | 5 (Level 5: the growth inhibition rate is greater than 85%)
CSC(=O)C(CF)Oc1nc(F)c(Cl)c(N)c1Cl (stereo not drawn) [Compound 38] | 5 (Level 5: the growth inhibition rate is greater than 85%) | 5 (Level 5: the growth inhibition rate is greater than 85%) | 5 (Level 5: the growth inhibition rate is greater than 85%)
CSC(=O)C(Oc1nc(F)c(Cl)c(N)c1Cl)C(F)F (stereo not drawn) [Compound 39] | 5 (Level 5: the growth inhibition rate is greater than 85%) | 5 (Level 5: the growth inhibition rate is greater than 85%) | 5 (Level 5: the growth inhibition rate is greater than 85%)
CSC(=O)C(CCCl)Oc1nc(F)c(Cl)c(N)c1Cl (stereo not drawn) [Compound 40] | 5 (Level 5: the growth inhibition rate is greater than 85%) | 5 (Level 5: the growth inhibition rate is greater than 85%) | 5 (Level 5: the growth inhibition rate is greater than 85%)
CSC(=O)C(Oc1nc(F)c(Cl)c(N)c1Cl)C(F)(F)F (stereo not drawn) [Compound 41] | 5 (Level 5: the growth inhibition rate is greater than 85%) | 5 (Level 5: the growth inhibition rate is greater than 85%) | 5 (Level 5: the growth inhibition rate is greater than 85%)
CSC(=O)C(CC(F)(F)F)Oc1nc(F)c(Cl)c(N)c1Cl (stereo not drawn) [Compound 42] | 5 (Level 5: the growth inhibition rate is greater than 85%) | 5 (Level 5: the growth inhibition rate is greater than 85%) | 5 (Level 5: the growth inhibition rate is greater than 85%)
CSC(=O)C(C#N)Oc1nc(F)c(Cl)c(N)c1Cl (stereo not drawn) [Compound 43] | 5 (Level 5: the growth inhibition rate is greater than 85%) | 5 (Level 5: the growth inhibition rate is greater than 85%) | 5 (Level 5: the growth inhibition rate is greater than 85%)
CSC(=O)C(CC#N)Oc1nc(F)c(Cl)c(N)c1Cl (stereo not drawn) [Compound 44] | 5 (Level 5: the growth inhibition rate is greater than 85%) | 5 (Level 5: the growth inhibition rate is greater than 85%) | 5 (Level 5: the growth inhibition rate is greater than 85%)
CSC(=O)C(N)Oc1nc(F)c(Cl)c(N)c1Cl (stereo not drawn) [Compound 45] | 5 (Level 5: the growth inhibition rate is greater than 85%) | 5 (Level 5: the growth inhibition rate is greater than 85%) | 5 (Level 5: the growth inhibition rate is greater than 85%)
CSC(=O)C(CN(C)C)Oc1nc(F)c(Cl)c(N)c1Cl (stereo not drawn) [Compound 46] | 5 (Level 5: the growth inhibition rate is greater than 85%) | 5 (Level 5: the growth inhibition rate is greater than 85%) | 5 (Level 5: the growth inhibition rate is greater than 85%)
CSC(=O)C(Oc1nc(F)c(Cl)c(N)c1Cl)SC (stereo not drawn) [Compound 47] | 5 (Level 5: the growth inhibition rate is greater than 85%) | 5 (Level 5: the growth inhibition rate is greater than 85%) | 5 (Level 5: the growth inhibition rate is greater than 85%)
CSC(=O)C(CO)Oc1nc(F)c(Cl)c(N)c1Cl (stereo not drawn) [Compound 48] | 5 (Level 5: the growth inhibition rate is greater than 85%) | 5 (Level 5: the growth inhibition rate is greater than 85%) | 5 (Level 5: the growth inhibition rate is greater than 85%)
